Results on one molecule are retold here after patent US3997598A, “Process for purifying sorbic acid” (Hoechst Aktiengesellschaft, priority 1973, dated 1976).

Values after ≈ are worked out from the molar mass of the structure shown. Where two headings read alike, the source gives them in different places.

The conditions of series [1]: 30% aqueous dipotassium hydrogen phosphate.
A short description of another series: physchem. To be noted: 30% aqueous dipotassium hydrogen phosphate.
The conditions of series [2]: cited from earlier work.

For `C/C=C/C=C/C(=O)O` [sorbic acid], the solubility in series [1] was 15.1 grams per 100 ml of a salt sol; in “physchem”, 79 mg/mL (≈ 705 mM). In addition, the values for the solubility in water entry in series [2] (100° C) and in series [2] (in words) were “approximately 3%” and “low solubility”, respectively.
